For data set [1], the system named is ZIP9 protein. The data set can be described thus: ZIP9 protein silencing in PASC1 cells, immunofluorescence. Type of data set: cell-based, rat. The note with it: 48 h siRNA.
Data set [2] has as its system ZIP9-specific mRNA. Briefly: ZIP9 mRNA silencing in PASC1 cells, qRT-PCR. Type of data set: cell-based, rat. The note with it: 48 h siRNA. The procedure: (§1) Primers were designed with http://www.ncbi.nlm.nih.gov/tools/primer-blast (Accessed on 28 February 2022) and were all intron-spanning. Total RNA was isolated from PASC1 with the RNeasy Mini-Kit (Qiagen, Hilden, Germany) and subjected to DNase I treatment as described by the manufacturer. The Reverse Transcription-System first strand cDNA synthesis kit (Invitrogen, Darmstadt, Germany) was used for cDNA synthesis, as recommended. Quantitative real-time PCR (qRT-PCR) amplification was performed in duplicate with iQ TM SYBR Green Super-mix (Bio-Rad; Munich; Germany) on the iCycler iQ System (Bio-Rad). After an initial heating at 94 °C for 5 min, 40 amplification cycles were performed consisting of an initial denaturation of the DNA double strands at 94 °C for 14 s, an annealing phase of the primers at 59 °C for 30 s, and extension of the primers for 15 s at 72 °C. A finalizing extension at 72 °C was carried out for 10 min. Gene expression was measured after reaching the ct value and calculated using the Delta–Delta Ct method. Detection of GAPDH-specific mRNA/cDNA served as normalization of the quantification. Oligonucleotides used in the qRT-PCR, their annealing position, and the expected size of the amplificates are listed in Supplementary Table S2. […]
A general note: Quantitative PCR measures a nucleic acid by following its amplification.

Data set [3] has as its system androgen binding site of ZIP9. Briefly: T-BSA-FITC plasma membrane labeling of PASC1 cells and its displacement. The note with it: PASC1 cells, n = 28.
Description: PASC1 cells were cultured as described above in 24-well plates at a density of 3 × 10^3 cells/well until reaching a confluence of approximately 80%. The cells were then treated with either 10 nM testosterone or 1 µM of P1 for 1 h. Controls received only the testosterone vehicle (ethanol). […] The medium was then removed by aspiration. In order to label nuclei, cells were fixed at room temperature with 3.7% formaldehyde that contained 20 ng of 4,6-diamino-2-phenylindole (DAPI). After 15 min, the formaldehyde/DAPI solution was removed by aspiration. Cells were washed with Dulbecco’s phosphate-buffered saline (DPBS, Gibco, Schwerte, Germany) and then overlayed with 400 µL PBS before imaging. Images were taken by an inverse Olympus IX81 microscope (Olympus, Hamburg, Germany).
The subject of data set [4] is androgen binding site ZIP9 of L6 myoblasts. The note with it: cited from earlier work.
The subject of data set [5] is androgen binding site ZIP9 of the Sertoli cell line 93RS2. Also on record: method as in PMID 35053053, PMID 35053017. The note with it: 93RS2 cells; cited from earlier work.
For data set [6], the system named is AR protein. Briefly: AR protein silencing in PASC1 cells, immunofluorescence. The class given is cell-based, rat. The note with it: 48 h siRNA. Here is the method:
PASC1 cells were plated at a density of 3.0 × 10^4 on 24-well plates (1 mL/well) and incubated 48 h at 37 °C and 5% CO2 until a confluence of roughly 80% was reached. Cells were rinsed with DPBS and fixed with 100% ice-cold methanol (Roth, Karlsruhe, Germany) on ice for 10 min directly or after stimulation with vehicle, 10 nM testosterone, or 1 µM P1 for 24 h. Cells were then washed with DPBS three times for 5 min, and then incubated in blocking solution (PBS with 3% BSA and 0.3% Triton X-100, both from Sigma-Aldrich) for 1 h at room temperature. The blocking solution was replaced by fresh blocking solution containing the primary antibodies for detection of either AR, p-Erk1/2, p-CREB/p-ATF-1, claudin-1 (Cldn-1), or zonula occludens-1 (ZO-1) (Supplementary Table S1) and incubated overnight at 4 °C. […] After washing 3 times with DPBS, images were obtained using an inverse Olympus IX81 microscope equipped with a fluorescence system. A total of 30 cells from 3 independent experiments (30 × 3) localized closest to the diagonals of the square optical field were selected and the manually surrounded green fluorescence was quantified by ImageJ (available at http://rsbweb.nih.gov/ij/, last accessed 28 February 2022) following the protocol of the software provider. The data obtained were analyzed by GraphPad Prism5 (GraphPad Software, Inc., La Jolla, CA, USA). […]

Data set [7] concerns AR-specific mRNA. Briefly: AR mRNA silencing in PASC1 cells, qRT-PCR. The class given is cell-based, rat. The note with it: 48 h siRNA. Here is the method: as §1

For the substance “ZIP9-directed siRNA: 5′ GGAUUAAGUAAGAGCAGUAtt3′ and 5′ UACUGCUCUUACUUAAUCCta 3′ (ZIP9-siRNA for ZIP9 silencing) (chain 1 GGAUUAAGUAAGAGCAGUATT; chain 2 UACUGCUCUUACUUAAUCCTA; Commercial Silencer Select siRNA, lowercase 3' overhang letters not explained, further chemistry not given here)”, in data set [1], the “Expression of ZIP9 protein” value was “similarly successful in preventing expression”. The “Expression of ZIP9 mRNA” value in data set [2] was “similarly successful in preventing expression”.

On to “testosterone 3-(O-carboxymethyl)-oxime:bovine serum albumin-fluorescein isothiocyanate conjugate [T-BSA-FITC]”, for which the Membrane labeling result in data set [3] (10 µM T-BSA-FITC, pH 7.2, 20 min, room temperature, nc-siRNA treated, fluorescence) is “label the surface of PASC1 cells”. Besides, in data set [3] (ZIP9 expression suppressed by siRNA, 10 µM T-BSA-FITC), the “Membrane labeling after ZIP9 knockdown” value is “suppression of its expression by siRNA prevented the binding of T-BSA-FITC”. The “Labeling of androgen binding site of ZIP9” value in data set [4] is “suitable to label the androgen binding site ZIP9 of the Sertoli cell line 93RS2 and also of L6 myoblasts”; in data set [5] it was “suitable to label the androgen binding site ZIP9 of the Sertoli cell line 93RS2”.

Consider “AR-siRNA: 5′CCGGAAAUGUUAUGAAGCAtt3′ plus 5′ UGCUUCAUAACAUUUCCGGag 3′ (AR-siRNA for AR silencing) (chain 1 CCGGAAAUGUUAUGAAGCATT; chain 2 UGCUUCAUAACAUUUCCGGAG; Commercial Silencer Select siRNA, lowercase 3' overhang letters not explained, further chemistry not given here)”, for which the “Expression of AR protein” value in data set [6] is “also prevented”. In addition, in data set [7], the “Expression of AR-specific mRNA” value is listed as “greatly suppressed”.

“BSA-FITC: BSA-FITC (lacking testosterone)”: the “Membrane labeling by BSA-FITC (non-specific binding)” value in data set [3] (10 µM BSA-FITC, pH 7.2, 20 min, room temperature) is “failed to label the membrane structure”.

Values taken from paper PMC9138102, “The Role of ZIP9 and Androgen Receptor in the Establishment of Tight Junctions between Adult Rat Sertoli Cells” (Biology, 2022).
